Data on 15 compounds can be found in ChEMBL document CHEMBL4699538 (Bioorg Med Chem Lett, 2020).

pIC50: −log10 of the molar value.

The test system of series [1] is MOLM-13. The experiment in a line: Antiproliferative activity against human MOLM-13 cells. Format: functional, cell-based.
Series [2] concerns the target Dihydroorotate dehydrogenase (quinone), mitochondrial (Homo sapiens, UniProt Q02127). The experiment in a line: Inhibition of human DHODH.
The nature of series [3]: Plasma protein binding in mouse assessed as unbound fraction. Format: ADME, cell-free.
Series [4] in a line: Plasma protein binding in human assessed as unbound fraction. Type of series: ADME, cell-free.
The nature of series [5]: Half life in C57 mouse at 10 mg/kg, po or 2 mg/kg, iv. Format: ADME, organism-based. The conditions noted are these: in vivo.
Series [6] can be described thus: Metabolic stability in mouse liver microsomes assessed as half life. Format: ADME, Microsome. For orientation: Liver microsomes are a subcellular fraction often used to study metabolism.
Series [7] can be described thus: Volume of distribution at steady state in C57 mouse at 10 mg/kg, po or 2 mg/kg, iv. Format: ADME, organism-based. The conditions noted are these: in vivo, read-out: Vdss.
A short description of series [8]: Metabolic stability in human liver microsomes assessed as half life. Format: ADME, Microsome.
Series [9] is described as follows: Oral bioavailability in C57 mouse at 10 mg/kg. Type of series: ADME, organism-based. As to conditions: in vivo.
Series [10] is described as follows: Clearance in C57 mouse at 10 mg/kg, po or 2 mg/kg, iv. Format: ADME, organism-based. As to conditions: in vivo.

Chain of Dihydroorotate dehydrogenase (quinone), mitochondrial (Q02127 whole entry): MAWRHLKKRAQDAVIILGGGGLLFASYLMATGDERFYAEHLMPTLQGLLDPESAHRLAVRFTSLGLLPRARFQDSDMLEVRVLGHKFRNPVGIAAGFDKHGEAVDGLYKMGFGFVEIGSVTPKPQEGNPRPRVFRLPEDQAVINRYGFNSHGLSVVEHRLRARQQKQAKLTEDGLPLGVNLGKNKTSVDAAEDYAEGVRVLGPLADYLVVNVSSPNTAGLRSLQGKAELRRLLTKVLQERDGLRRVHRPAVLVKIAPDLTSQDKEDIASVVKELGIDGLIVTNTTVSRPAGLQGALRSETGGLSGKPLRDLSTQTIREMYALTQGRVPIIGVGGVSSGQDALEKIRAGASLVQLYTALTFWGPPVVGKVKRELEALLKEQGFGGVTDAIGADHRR

The term pIC50 denotes the IC50 on a negative log10 scale, so that one unit is a factor of ten. Low values mean a large IC50, high ones a small IC50. `Cc1c(-c2ccc(-c3ccccc3F)cc2)nc2ccc(F)cc2c1C(=O)NC#N`: the pIC50 in [1] (Homo sapiens, MOLM-13) is less than 5.52; in series [2], 6.94.

The term half-life denotes the time needed for the level to fall by half in the phase considered. For the compound `CONC(=O)c1c(C)c(-c2ccc(-c3ccccc3F)cc2)nc2ccc(F)cc12`, the Fu in [3] was 0.77%; in [4] it was 0.55%. Also, the pIC50 in series [1] (Homo sapiens, MOLM-13) is 8.05; in series [2], 9.92. In addition, the figures for the half-life in series [5], in [6] and in series [8] were 2.35 h, 0.95 h and more than 3 h, respectively. In series [7], the Vd turned out to be 1.15 L/kg. The bioavailability in [9] stood at 108%. The compound further had a clearance in [10] of 0.305 L/h/kg.

`Cc1c(-c2ccc(-c3ccccc3F)cc2)nc2ccc(F)cc2c1C(F)F`: the pIC50 was less than 5.52 in series [1] (Homo sapiens, MOLM-13) and 6.80 in [2].

`COC(=O)NC(=O)c1c(C)c(-c2ccc(-c3ccccc3F)cc2)nc2ccc(F)cc12`: the pIC50 in series [1] (Homo sapiens, MOLM-13) was 6.39; in series [2] it was 5.90.

In the case of `Cc1c(-c2ccc(-c3ccccc3F)cc2)nc2ccc(F)cc2c1C(=O)N(C)O`, the pIC50 is 5.29 in series [1] (Homo sapiens, MOLM-13) and 8.11 in series [2].

For the compound `Cc1c(-c2ccc(-c3ccccc3F)cc2)nc2ccc(F)cc2c1C(=O)NO`, the pIC50 in series [1] (Homo sapiens, MOLM-13) is 7.64; in series [2] it was 8.85. Further, the half-life is 0.6 h in series [6] and more than 3 h in series [8].

As to `Cc1c(-c2ccc(-c3ccccc3F)cc2)nc2ccc(F)cc2c1C(N)=O`, the pIC50 in series [1] (Homo sapiens, MOLM-13) is 6.89; in series [2], 7.33. Moreover, the half-life came to 1.08 h in series [6] and 2.25 h in series [8].

On to `Cc1c(-c2ccc(-c3ccccc3F)cc2)nc2ccc(F)cc2c1C(=O)NS(C)(=O)=O`, for which the pIC50 was 6.52 in series [1] (Homo sapiens, MOLM-13) and 7.49 in series [2].

As to `Cc1c(-c2ccc(-c3ccccc3F)cc2)nc2ccc(F)cc2c1-c1noc(=O)[nH]1`, the pIC50 in [1] (Homo sapiens, MOLM-13) is less than 5.52; in series [2], 5.81.

With `Cc1c(-c2ccc(-c3ccccc3F)cc2)nc2ccc(F)cc2c1C(=O)C(F)(F)F`, the pIC50 in series [1] (Homo sapiens, MOLM-13) is less than 5.52; in series [2], 7.13.

`Cc1c(-c2ccc(-c3ccccc3F)cc2)nc2ccc(F)cc2c1-c1nnn[nH]1`: the pIC50 in series [1] (Homo sapiens, MOLM-13) was less than 5.52; in [2], 6.65.

`Cc1c(-c2ccc(-c3ccccc3F)cc2)nc2ccc(F)cc2c1C(O)C(F)(F)F` (stereo not given): the pIC50 in [1] (Homo sapiens, MOLM-13) is 6.19; in series [2], 6.09.

Regarding `CCONC(=O)c1c(C)c(-c2ccc(-c3ccccc3F)cc2)nc2ccc(F)cc12`, the pIC50 in series [1] (Homo sapiens, MOLM-13) is 7.48; in series [2], 8.38. Moreover, the half-life in series [6] was 0.3 h; in series [8], more than 3 h.

Consider `Cc1c(-c2ccc(-c3ccccc3F)cc2)nc2ccc(F)cc2c1CO`, for which the pIC50 in [1] (Homo sapiens, MOLM-13) was 6.15; in series [2], 6.78.

Consider `Cc1c(-c2ccc(-c3ccccc3F)cc2)nc2ccc(F)cc2c1C(=O)O` [BREQUINAR], for which the Fu is reported as 0.73% in series [3] and 0.39% in [4]. This compound had a pIC50 in series [1] (molm-13) of 7.22. Also, the half-life in series [6] and in [8] was more than 3 h in each case. Also, in [7], the Vd stood at 0.3 L/kg. Besides, the bioavailability in [9] was determined as 72%. In series [10], this compound gave a clearance of 0.012 L/h/kg.
